Laboratory results from the supplement of paper PMC10307832.

How the values were obtained:
Test in all cases: relative viability (nuclei count vs DMSO), 5 days (fraction); higher = more cells survive
AZD1208 + Linsitinib = compound: N[C@@H]1CCCN(c2c(/C=C3\SC(=O)NC3=O)cccc2-c2ccccc2)C1 [AZD1208] + C[C@]1(O)C[C@@H](c2nc(-c3ccc4ccc(-c5ccccc5)nc4c3)c3c(N)nccn32)C1 [Linsitinib] (partner 1 µM)
How it was run: (§1)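 A single step with final 0.05% Triton X-100, 1% formaldehyde and 1 ug/ml Hoechst fixed the cells and stained nuclei 5 days after treatment. Lung cancer cell lines in 1536-well plates had been treated by pin tool the day after seeding with one drug alone or a fixed anchor-drug dose plus five library-drug doses (not always all listed) in √10 steps, and nuclei were counted on 4× images. Relative viability is the ratio of nuclei in treated wells to nuclei in vehicle wells, taken as the median of duplicate plates.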

XMD14-99 + Olaparib = compound: CN1CCN(CC1)C2=CC(=C(C=C2)NC3=NC(=C(S3)C(=O)C4=C(C=CC=C4Cl)Cl)N)OC [XMD14-99] + O=C(c1cc(Cc2n[nH]c(=O)c3ccccc23)ccc1F)N1CCN(C(=O)C2CC2)CC1 [Olaparib] (partner 8 µM)
How it was run: as §1

AZD1208 + Decitabine = compound: N[C@@H]1CCCN(c2c(/C=C3\SC(=O)NC3=O)cccc2-c2ccccc2)C1 [AZD1208] + Nc1ncn([C@H]2C[C@H](O)[C@@H](CO)O2)c(=O)n1 [Decitabine] (partner 2 µM)
How it was run: as §1

XMD14-99 + Luminespib = compound: CN1CCN(CC1)C2=CC(=C(C=C2)NC3=NC(=C(S3)C(=O)C4=C(C=CC=C4Cl)Cl)N)OC [XMD14-99] + CCNC(=O)c1noc(-c2cc(C(C)C)c(O)cc2O)c1-c1ccc(CN2CCOCC2)cc1 [Luminespib] (partner 0.01 µM)
How it was run: as §1

Cell Line | relative viability (AZD1208 + Linsitinib; first compound 0.08 µM) | relative viability (AZD1208 + Linsitinib; first compound 0.253 µM) | relative viability (AZD1208 + Linsitinib; first compound 0.8 µM) | relative viability (AZD1208 + Linsitinib; first compound 2.53 µM) | relative viability (AZD1208 + Linsitinib; first compound 8 µM) | relative viability (XMD14-99 + Olaparib; first compound 0.08 µM) | relative viability (XMD14-99 + Olaparib; first compound 0.8 µM) | relative viability (XMD14-99 + Olaparib; first compound 2.53 µM) | relative viability (XMD14-99 + Olaparib; first compound 8 µM) | relative viability (AZD1208 + Decitabine; first compound 0.08 µM) | relative viability (AZD1208 + Decitabine; first compound 0.253 µM) | relative viability (AZD1208 + Decitabine; first compound 0.8 µM) | relative viability (AZD1208 + Decitabine; first compound 2.53 µM) | relative viability (AZD1208 + Decitabine; first compound 8 µM) | relative viability (XMD14-99 + Luminespib; first compound 0.08 µM) | relative viability (XMD14-99 + Luminespib; first compound 0.8 µM) | relative viability (XMD14-99 + Luminespib; first compound 2.53 µM) | relative viability (XMD14-99 + Luminespib; first compound 8 µM)
LCLC-103H | 1.04 | 1.09 | 1.06 | 1.11 | 0.891 | 0.764 | 0.779 | 0.752 | 0.657 | 0.715 | 0.654 | 0.707 | 0.723 | 0.743 | 0.984 | 1.1 | 0.84 | 0.847
LK-2 | 0.43 | 0.523 | 0.302 | 0.263 | 0.268 | 0.751 | 0.591 | 0.685 | 0.419 | 0.316 | 0.291 | 0.23 | 0.274 | 0.195 | 0.183 | 0.188 | 0.206 | 0.171
LOU-NH91 | 0.953 | 0.934 | 0.855 | 0.949 | 0.822 | 0.904 | 0.919 | 0.891 | 0.692 | 0.766 | 0.798 | 0.793 | 0.798 | 0.798 | 0.443 | 0.325 | 0.294 | 0.3
LU99A | 0.504 | 0.5 | 0.51 | 0.397 | 0.432 | 0.304 | 0.263 | 0.19 | 0.135 | 0.991 | 0.899 | 0.795 | 0.852 | 0.799 | 0.288 | 0.252 | 0.247 | 0.219
LXF-289 | 0.982 | 1.01 | 0.966 | 1.01 | 1.01 | 1.06 | 1.01 | 1.11 | 0.931 | 0.36 | 0.423 | 0.378 | 0.36 | 0.289 | 0.586 | 0.672 | 0.639 | 0.634
NCI-H23 | 0.453 | 0.539 | 0.462 | 0.434 | 0.461 | 0.313 | 0.325 | 0.277 | 0.225 | 0.292 | 0.285 | 0.308 | 0.329 | 0.275 | 0.199 | 0.247 | 0.214 | 0.202
NCI-H322M | 0.954 | 0.98 | 0.828 | 0.829 | 0.84 | 0.807 | 0.8 | 0.75 | 0.617 | 0.669 | 0.659 | – | 0.669 | 0.713 | 0.857 | 1.06 | 0.939 | 0.863
NCI-H358 | 0.675 | 0.604 | 0.564 | 0.71 | 0.605 | 0.603 | 0.773 | 0.585 | 0.312 | 0.206 | 0.188 | 0.185 | 0.207 | 0.197 | 0.219 | 0.262 | 0.323 | 0.281
NCI-H441 | 0.477 | 0.593 | 0.381 | 0.497 | 0.457 | 0.526 | 0.519 | 0.529 | 0.455 | 0.205 | 0.298 | 0.291 | 0.224 | 0.264 | 0.351 | 0.352 | 0.311 | 0.276
NCI-H460 | 0.724 | 0.843 | 0.817 | 0.711 | 0.539 | 0.394 | 0.432 | 0.421 | 0.182 | 0.458 | 0.604 | 0.465 | 0.495 | 0.516 | 0.0305 | 0.037 | 0.0277 | 0.0243
NCI-H520 | 0.904 | 1.07 | 0.808 | 0.819 | 0.83 | 0.344 | 0.381 | 0.32 | 0.196 | 0.566 | 0.507 | 0.473 | 0.456 | 0.428 | 0.191 | 0.219 | 0.217 | 0.223
NCI-H596 | 0.97 | 1.02 | 0.975 | 1.01 | 0.714 | 0.815 | 0.725 | 0.646 | 0.665 | 0.847 | 1.01 | 0.901 | 0.902 | 0.756 | 1.05 | 1.11 | 0.917 | 0.983
NCI-H647 | 1.22 | 1.1 | 1.06 | 1.03 | 1.06 | 0.512 | 0.561 | 0.746 | 0.38 | 0.256 | 0.56 | 0.33 | 0.372 | 0.297 | 0.322 | 0.233 | 0.23 | 0.0995
NCI-H650 | 0.877 | 0.83 | 0.784 | 0.482 | 0.71 | 0.39 | 0.355 | 0.338 | 0.327 | 0.284 | 0.297 | 0.352 | 0.31 | 0.343 | 0.733 | 0.873 | 0.79 | 0.722
NCI-H661 | 0.505 | 0.568 | 0.519 | 0.416 | 0.483 | 0.684 | 0.663 | 0.619 | 0.485 | 0.559 | 0.56 | 0.547 | 0.502 | 0.51 | 0.855 | 0.778 | 0.697 | 0.55
NCI-H727 | 0.29 | 0.219 | 0.264 | 0.259 | 0.225 | 0.737 | 0.68 | 0.712 | 0.523 | 0.906 | 0.689 | 0.589 | 0.867 | 0.854 | 0.383 | 0.305 | 0.203 | 0.352
NCI-H838 | 0.992 | 1.09 | 0.815 | 1.02 | 0.817 | 0.736 | 0.754 | 0.637 | 0.45 | 0.458 | 0.491 | 0.465 | 0.493 | 0.406 | 0.28 | 0.293 | 0.239 | 0.235
NCI-H1355 | 0.846 | 0.921 | 0.718 | 0.737 | 0.695 | 0.72 | 0.708 | 0.715 | 0.493 | 0.331 | 0.327 | 0.335 | 0.341 | 0.33 | 0.843 | 0.799 | 0.67 | 0.617
